Measured values as given in patent US20170131285A1, “METHODS AND COMPOSITIONS FOR DIAGNOSING, MONITORING AND TREATING CANCER” (INSERM (Institut National de la Sante et de la Recherche …, priority 2014, published 2017).

How the values were obtained:
HCT116 cells = assay: HSP70-exosomes release from HCT116 cells treated with chemotherapy drugs (BLI, flow cytometry); format: cell-based, human; conditions: for amount of HSP70-exosomes released, dose-response / number of exosomes at higher doses: HCT116, 48 h; for amount of HSP70-exosomes released, dose-response: concentrations inducing a relatively low amount of cell death, flow cytometry; for number of exosomes at higher doses: doses inducing more than 40% cell death; for amount of HSP70-exosomes released, extent of increase: HCT116, toxic equivalent concentrations: oxaliplatin 5 μM, 5FU 3 μM, paclitaxel 50 nM, gemcitabin 10 μM, doxorubicin 2.5 μM, BLI
Experimental: FIG. 7: Effect of chemotherapy drugs on HSP70-exosomes release. A) Association curves of HSP70-exosomes isolated from the supernatant of HCT116 cells treated or not with oxaliplatin (5 μM), 5FU (3 μM), paclitaxel (50 nM), gemcitabin (10 μM) and doxorubicin ([…]). For the BLI, biotinylated A8 was immobilized on streptavidin sensor tips, n=3. B-C) HCT116 cells were treated with 5FU (3, 12, 24 and 36 μM) or oxaliplatin (5, 20, 40 and 60 μM) or doxorubicin (2.5, 10, and 20 μM) during 48 h. B) concentration of HSP70-exosomes released was measured by flow cytometry. C) measured apoptosis of HCT116 (7AAD and FITC-Annexin V).
Cells were cultured in medium depleted from serum-derived exosomes. Supernatants were collected from cell lines and sequentially centrifuged at 300 g for 10 minutes (4° C.) and at 2,000 g for 10 minutes. Then, exosomes were ultracentrifugated at 100,000 g for 70 minutes and washed in PBS. The same protocol was used for urines and blood samples. To evaluate exosome concentrations, we used a Nano Sight LM10 instrument (NanoSight, Amesbury, UK).
Protein-protein interaction experiments were conducted with an Octet Red instrument (ForteBio, USA). The ligand (A8 or TLR2) was biotinylated using EZ-Link NHS-PEG4-biotin (2 nM, 30 min, RT, Thermo Fisher Scientific, Germany) and immobilized on streptavidin sensors (96-well plate black, ForteBio, USA). Functionalized sensors were incubated in PBS (10 min) then incubated with exosomes (10^6, from cancer cells lines or normal cells or mice blood or human urine, for 120 or 600 seconds) or HSP70 (concentration range from 2.5 μM to 0.52 nM) or cmHSP70 (1/1,000). All sensorgrams were corrected for baseline drift by subtracting a control sensor exposed to running buffer only. Each KD was determined with a 1:1 stoichiometry model using a global fit with Rmax unlinked by sensor (ForteBio, Data analysis software version 7.1.0.89).
Exosomes from cancer cells lines or normal cells were bound to surfactant-free white aldehyde-sulfate latex beads ([…], Invitrogen) and concentrated at 1·10^4 beads/μL. Exosomes (30 μg) were incubated with the beads suspension for 15 min and then for 1 h at room temperature (RT) in final volume of 1 mL PBS. Beads were saturated with glycine (100 mM) for 30 minutes at RT and washed twice with PBS supplemented by 3% of FBS. Expression of membranar HSP70 on cells (normal and cancerous) was determined by flow cytometry using cmHSP70 antibody. MSC2 and HCT116 cell death was measured by PS exposure, cells stained with 7AAD and FITC-Annexin V conjugate. All analyses were performed on a LSRII flow cytometer (BD Bioscience).

B16F10 tumors = assay: B16F10 melanoma tumor model in C57/BL6 mice; format: in vivo, mouse; conditions: B16F10 tumor-bearing C57/BL6 mice, day 18; A0 or A8 3 mg/kg i.p. every two days; cisplatin single i.p. dose; 6 animals per group
Experimental: (§1) FIG. 5: A8 anti-tumor effect in mice is associated to MDSC and an immune anti-tumor response. (A) Mice were sc injected with B16F10 cells (5×10^4). On day 4, when tumor size was about 0.9 mm^3, animals were treated every two days until the end of the experiment with A0 or A8 (3 mg/kg dissolved in PBS, i.p injection). On day 5, half the animals were treated with cisplatin as a single dose (CDDP, i.p injection, 5 mg/kg). At day 18, the percentage of Gr1^+ CD11b^+ cells in the spleen collected from the different groups of mice was analyzed by flow cytometry (6 animals per group). As a MDCS negative control (Ctl) we used animals with no tumor cells injected. Right panels, a representative immunoblot of pSTAT3 in the MDSC (Gr1^+ CD11b^+ cells) isolated from the spleen of control animals (A0/PBS) or A8 and CDDP-treated animals (A8/CDDP). 14-3-3 is used as a loading control. (B) Analysis of tumor growth in the animals described above. Tumor size was measured every two days (6 animals per group). The white symbols represent the tumors from animals treated with cisplatin. (C) HSP70-exosomes isolated from B16F10 cells treated or not with cisplatin (CDDP, 25 μM) were determined by flow cytometry. Data represent the percentage of MFI+/−SD (n=3); *, p<0.05. (D) Association curves of HSP70-exosomes present in tumor-bearing mice sera treated or not with cisplatin (5 mg/kg). For the biolayer interferometry, biotinylated A8 was immobilized on streptavidin sensor tips. Curves represent mean values of triplicate measurements for each concentration (for each curve, the blood of 5 mice per group was pooled).
Exponentially growing B16F10 were harvested and resuspended in an RPMI medium without FBS. In vivo studies were performed in wild-type C57/BL6 mice (Charles River). B16F10 cells (5·10^4) were injected s.c. into the right flank Tumor volumes were evaluated every 2 days. Mice were treated with a control peptide aptamer A0 (3 mg/kg) or the HSP70 aptamer A8 (3 mg/kg) and half mice were treated with cisplatin (CDDP, […]). The animals were treated according to the guidelines of the Ministère de la Recherche et de la Technologie, France. All experiments were approved by the Comité d'Ethique de l'Université de Bourgogne.
MDSC cell isolation and analysis: Single-cell suspensions were prepared from spleens, and red cells were removed using ammonium chloride lysis buffer. Gr-1+ cells were isolated from spleens of different group of tumor-bearing mice or naive mice by labeling the cells with PE Cy7 Ab to Gr-1, then using magnetic PE Cy7 beads and LS MACS columns (Miltenyi Biotec). For extracellular staining of immune markers, single-cell suspensions were prepared. We incubated 1·10^6 freshly prepared cells with fluorochrome-coupled CD11b antibody (eBioscience). All events were acquired by a BD Bioscience LSR-II device and analyzed with FlowJo (Tree Star).
Animals were killed 18 days after cell injection. The site of tumor cell injection was resected and snap-frozen in liquid nitrogen. An immunohistochemical study of tumor-infiltrating inflammatory cells was performed on acetone-fixed 5 μm cryostat sections.
Next, we tested whether A8 was also able to block the immunosuppressive effect of MDSC in an in vivo cancer model. We performed subcutaneous injection at day 0 of B16F10 cells or media as a control in C57/BL6 mice. When tumor size reached about 0.9 mm^3 ([…]), mice were treated i.p. with a control peptide aptamer (A0) or A8 every two days until the end of the experiment. When indicated, half of the animals received cisplatin (CDDP, […], i.p.) as a single dose. Tumor growth was measured every two days. After 18 days, we analyzed the percentage of MDSC present in mice spleen (6 animals per group) by FACS using the specific markers Gr1^+ and CD11b^+ (FIG. 5A). […]

[1] = test system: B16F10 tumor-bearing mice; assay: HSP70-exosomes in blood of tumor-bearing mice, A8-BLI protocol; format: in vivo, mouse; conditions: cisplatin 5 mg/kg, BLI with A8 ligand
B16F10 cells = assay: HSP70-exosomes released by cultured B16F10 cells, flow cytometry; format: cell-based, mouse; conditions: cisplatin 25 μM, FACS
Experimental: as §1, with “The white symbols represent the tumors from animals treated with cisplatin.” left out, “Data represent the percentage of MFI+/−SD (n=3); *, p<0.05. (D) Association curves of HSP70-exosomes present in tumor-bearing mice sera treated or not with cisplatin (5 mg/kg). For the biolayer interferometry, biotinylated A8 was immobilized on streptavidin sensor tips. Curves represent mean values of triplicate measurements for each concentration (for each curve, the blood of 5 mice per group was pooled).” left out
B16F10, CT26, HCT116 and SW480 cells were cultured for 48 h or 24 h with cisplatin (CDDP) treatment in medium depleted from serum-derived exosomes by overnight centrifugation at 100,000 g. […] The concentration of exosomal proteins was quantified by Lowry assay (Biorad). […]

MSC2 cells = assay: pSTAT3 western blot in MSC2 cells incubated with tumor-derived exosomes; format: cell-based; conditions: exosomes from CT26, B16F10, HCT116, SW480; 4 h and 6 h; aptamer 16 μM
Experimental: FIG. 4: A8 blocks the activation and proliferation of MSC2 cells. (A) IL-6 concentration was determined by ELISA in the supernatant of MSC2 cells incubated or not for 24 h with exosomes (from B16F10) in the presence or absence of A8. *, p<0.05, (n=3). (B) A representative image of a western blot showing the kinetics of STAT3 phosphorylation in MCS2 cells incubated or not with exosomes isolated from B16F10, CT26 or HCT116 cells together with a peptide control (TDE) or A8 (TDE/A8). 14-3-3 is used as a loading control. In the right panels, the amount of pSTAT3 was quantified by densitometric analysis. *, p<0.05, n=4.
Five millions of MSC2 cells were incubated with or without exosomes isolated from B16F10, CT26, HCT116 or SW480 cells in the presence or absence of A8 during 4 h or 6 h. Cells were isolated, lysed and analysed for pSTAT3 by western blotting.
MSC2 (2·10^6) or MDSC (2·10^6) were incubated alone or with exosomes (from B16F10, CT26, HCT116, SW480) in the absence or presence of A8 or A17 (16 μM) during 6 hours (RPMI 10% FBS, 5% of CO2 at 37° C.). Every 2 hours, […] cells were sampled and centrifugated 5 min at 300 g. Cells were lysed in lysis buffer (50 mM HEPES (pH 7.6), 150 mM NaCl, 5 mM EDTA, and 0.1% NP40 and anti-phosphatases, Roche). Then, pSTAT3 and STAT3 expression were analyzed by western blotting.

Row | Compound | amount of HSP70-exosomes released, dose-response (HCT116 cells) | number of exosomes at higher doses (HCT116 cells) | amount of HSP70-exosomes released, extent of increase (HCT116 cells) | further results
1 | O=c1[nH]cc(F)c(=O)[nH]1 [5-fluorouracil] | increased with drug concentration | drastically decreased | greater | 
2 | N.N.[Cl][Pt][Cl] [cisplatin] | increased with drug concentration | drastically decreased |  | percentage of MDSC (Gr1+ CD11b+) in spleen (B16F10 tumors): 9+/−0.9%; amount of HSP70-exosomes in the blood [1]: much stronger; amount of HSP70-exosomes released by B16F10 cancer cells (B16F10 cells): strongly increased
3 | COc1cccc2c1C(=O)c1c(O)c3c(c(O)c1C2=O)C[C@@](O)(C(=O)CO)C[C@@H]3O[C@H]1C[C@H](N)[C@H](O)[C@H](C)O1 [doxorubicin] | increased with drug concentration | drastically decreased | lesser | 
4 | Nc1ccn([C@@H]2O[C@H](CO)[C@@H](O)C2(F)F)c(=O)n1 [gemcitabine] |  |  | induce an increase in the amount of HSP70-exosomes | 
5 | O=C1[O][Pt]2([NH][C@@H]3CCCC[C@H]3[NH]2)[O]C1=O [oxaliplatin] |  |  | greater | 
6 | CC(=O)O[C@H]1C(=O)[C@@]2(C)[C@H]([C@H](OC(=O)c3ccccc3)[C@]3(O)C[C@H](OC(=O)[C@H](O)[C@@H](NC(=O)c4ccccc4)c4ccccc4)C(C)=C1C3(C)C)[C@]1(OC(C)=O)CO[C@@H]1C[C@@H]2O [paclitaxel] |  |  | induce an increase in the amount of HSP70-exosomes | 
7 | YCAYYSPRHKTTF (Synthetic Aptamer A17) [reference compound] |  |  |  | STAT3 phosphorylation (activation) in MSC2 induced by tumor-derived exosomes (MSC2 cells): did not interfere
